Data taken from US20120035187A1 (priority 2009, published 2012).
Read-outs that look alike come from different tables or passages of the source. Marks after values point to notes of the source that are not given here.

How the values were obtained:
[1] = tested on: PC12-HS cells; test: Apoptosis induced by amyloid β fragment, Hoechst 33258 staining; format: cell-based, rat; details: 50 μM amyloid β fragment, NK-4 200 ng/ml
Experimental: A plurality of peptide fragments (called “AMYLOID β FRAGMENT” commercialized by AnaSpec, Inc., CA, USA, each peptide having the amino acid sequence of SEQ ID NO:1), which have an amino acid sequence positioning from 25th to 35th from the N-terminus of amyloid R peptide with human origin and have been recognized as a main factor of neurocyte death in Alzheimer's disease, were diluted with phosphate buffered saline (PBS) to give a concentration of 2 mM, and used after being aged at 37° C. for six hours to coagulate them to increase their cytotoxicity before use. […] Viability (%) of cells in each well was determined and shown in Table 1 by calculating a relative value when the fluorescent intensity of the control was regarded as 100%. […] Thereafter, the cells were stained with […] Hoechst 33258 dye commercialized by SIGMA Corporation, Tokyo, Japan, for five min, observed at a magnitude corresponding to a visual filed containing about 100 cells under a phase contrast microscope and a fluorescent microscope, and counted. The occupied percentage (%) of cells with apoptosis against the total cells in one visual field was calculated and the data was also shown in Table 1. […]

[2] = tested on: intracellular cyclic adenosine monophosphate (AMP); test: Increment of intracellular cyclic AMP; format: cell-based
[3] = tested on: SAPK/JNK; test: Phosphorylation of SAPK/JNK by hydrogen-peroxide-induced cell injury; format: cell-based
[4] = tested on: hamsters with cerebellar ataxia; test: Histological evaluation of cerebellum of hamsters with cerebellar ataxia; format: in vivo, hamster; details: 10-weeks of age; for Cerebellar volume (mm^3) / Number of Purkinje cells (cells) / Number of granular cells (cells/20000 μm^2): cerebellar ataxia hamsters; for Number of subject (head) with apparent demyelination in cerebellar white matter: five heads per group
Description: Since NK-4 was confirmed to have a neurodegenerative inhibitory action in Experiment 1, hamsters with cerebellar ataxia (cerebellar ataxia is called “cerebellar A” and hamsters with cerebellar ataxia are called “hamsters with cerebellar A”, hereinafter) as a suitable model for human neurodegenerative diseases (e.g., spinal cerebellar degeneration) were subjected to examine the influence of NK-4 administration on their behaviors and brain tissues. Twenty-five hamsters with natural mutation (Nna1 inhibition), which are known to lose Purkinje's cells after three-weeks of age and then induce a spontaneous onset of kinetic motor ataxia after seven-weeks of age (see Akita K. et al., “J. Neurogenetics”, Vol. 21, pp. 19-29, 2007), had been fed at Hayashibara Biochemical Laboratories., Inc., Okayama, Japan, were randomly allocated to the test groups 1 to 5, five heads in each group, as shown in Table 2. Prior to the onset of cerebellar A (at three-weeks of age), PBS was started to administer to the hamsters in the test group 1 at a dose of 10 ml/kg/day. Prior to the onset of cerebellar A (at three-weeks of age), NK-4 was started to be administered to the hamsters in the test groups 2 to 4 at a daily dose of 20 μg/kg, 100 μg/kg or 500 μg/kg. “IGF-1, human, a product name of insulin-like growth factor, commercialized by Assaypro LLC, MO, USA. These administered ingredients were intraperitoneally administered daily to hamsters once a day up to 10-weeks of age. The degree of symptom of cerebellar A and the improvement effect on the symptom by NK-4 were evaluated with an index of improvement in motor coordination of hamsters by conducting once a week the later described rotarod test and the slant tolerance test. At the age of 10-weeks, the hamsters were subjected to counting the falling down frequency and extracted their brains, which were then histologically evaluated. In parallel, the concentration of glutamic acid in the bloods and cerebrospinal fluids (CSF) of the hamsters was assayed. As a test group 6, five normal hamsters, with the same age as the hamsters with cerebellar A used in the test groups 1 to 5, were provided and tested similarly as the hamsters with cerebellar A in such a manner of intraperitoneally administering PBS to them at a dose of 10 ml/kg/day once a day up to 10-weeks of age.
Hamsters, 10-weeks of age, after completion of test on coordinated movement such as a confirmation of falling down frequency were intraperitoneally received 50 mg/kg pentobarbital, bled from their postcavas to let them die, and extracted their cerebra and cerebella, followed by fixing them with a 10% by volume of formalin solution. The resulting cerebra and cerebella were photographed with a digital camera apart from a prescribed high position and measured diameters in sagittal and horizontal directions for each photograph. The volumes of cerebra and cerebella were respectively determined by calculating with the formula, (length of sagittal direction)^2×(length of horizontal direction)×0.5; and the data from five heads in each group were averaged. The hamsters with cerebella A used in this experiment are known to reduce cell density of Purkinje's cells and granular cells. Cerebellar slices, which had been cut out in sagittal direction, were stained with hematoxylin-eosin stain, and microscopically observed to count the total number of Purkinje's cells within a Purkinje's cell layer ([…] I to X) and the number of granular cells per unit area, and to confirm subjects in which demyelination was observed within their cerebellar white matters. The results are in Table 5 in parallel.

[5] = Body weight of hamsters with cerebellar ataxia during administration; format: in vivo, hamster; details: compared between groups administered with PBS, NK-4 and IGF-1
[6] = tested on: APP Tg mouse; test: Water maze test, APP transgenic mouse; format: in vivo; details: for Water maze test 1st day / Water maze test 2nd day / Water maze test 3rd day / Water maze test 4th day: time required for arriving the platform
[7] = tested on: C57BL/6J mice with cerebrovascular dementia; test: Novelty object recognition test, mouse with cerebrovascular dementia (ligation of right common carotid artery); format: in vivo; details: for Object discrimination index: mice with ligation of right common carotid artery, NK-4 i.p. five days a week
[8] = tested on: PC12-HS cells; details: 6-hydroxy dopa, 24 hours
Experimental: 6-Hydroxy dopa was used as a cytotoxic agent. Similarly as in Experiment 1, PC12-HS cells, which had been cultured in D-MEM medium supplemented with 10 v/v % FBS, were inoculated to 96-well microplates by 2×10^4/100 μl/well. […] Thereafter, the cells were fixed with 10% glutaraldehyde and the absorbance at 650 nm was measured by conventional dye-uptake method using methylene blue.

For CCN1C=CC(=CC=C(C=Cc2cc[n+](CC)c3ccccc23)c2cc[n+](CC)c3ccccc23)c2ccccc21.[I-].[I-] [NK-4], the “Percentage of appoptosis-induced cells (%) Amyloid β fragment” value [1] was 13 ** %, the “increment of intracellular cyclic adenosine monophosphate (AMP)” value [2] was “inducing the increment of intracellular cyclic adenosine monophosphate (AMP)” and the “phosphorylation of SAPK/JNK” value [3] was “inhibits the phosphorylation of SAPK/JNK”. For the same molecule, the “Cerebellar volume (mm^3)” value ([4]; 20 μg/kg body weight) was 76.0 ± 8.2* mm^3, the “Number of Purkinje cells (cells)” value ([4]; 20 μg/kg body weight) was 187 ± 37 cells and the “Number of granular cells (cells/20000 μm^2)” value (from here on “Number of granular cells”) ([4]; 20 μg/kg body weight) was 408 ± 8 cells/20000 μm^2. The “Cerebellar volume (mm^3)” value ([4]; 100 μg/kg body weight) was 77.0 ± 2.8* mm^3, the “Number of Purkinje cells (cells)” value ([4]; 100 μg/kg body weight) was 252 ± 29 cells and the “Number of granular cells” value ([4]; 100 μg/kg body weight) was 419 ± 6 cells/20000 μm^2. The “Cerebellar volume (mm^3)” value ([4]; 500 μg/kg body weight) was 80.5 ± 10.8* mm^3, the “Number of Purkinje cells (cells)” value ([4]; 500 μg/kg body weight) was 231 ± 41 cells and the “Number of granular cells” value ([4]; 500 μg/kg body weight) was 436 ± 7 cells/20000 μm^2. For the same molecule, the “Number of subject (head) with apparent demyelination in cerebellar white matter” value (shortened to “Number of subject (head)”) ([4]; 20 μg/kg body weight) was 4 head, the “Number of subject (head)” value ([4]; 100 μg/kg body weight) was 1 head and the “Number of subject (head)” value ([4]; 500 μg/kg body weight) was 0 head. For the same molecule, the “body weight of hamsters with cerebellar A, weighed once every week up to 10-weeks of age” value [5] was “no significant difference”, the “Water maze test 1st day” value ([6]; dose 100 μg/kg body weight) was 101 ± 38 and the “Water maze test 2nd day” value ([6]; dose 100 μg/kg body weight) was 73 ± 13. The “Water maze test 3rd day” value ([6]; dose 100 μg/kg body weight) was 59 ± 10, the “Water maze test 4th day” value ([6]; dose 100 μg/kg body weight) was 34 ± 10 and the “Water maze test 1st day” value ([6]; dose 500 μg/kg body weight) was 116 ± 3. The “Water maze test 2nd day” value ([6]; dose 500 μg/kg body weight) was 63 ± 12, the “Water maze test 3rd day” value ([6]; dose 500 μg/kg body weight) was 40 ± 7 and the “Water maze test 4th day” value ([6]; dose 500 μg/kg body weight) was 27 ± 7. The “water maze test (in words)” value ([6]; i.p. five times a week for 12 weeks) was “improved the dementia”, the adverse effect ([7]; mice with cerebrovascular dementia, i.p. five days a week) was “No adverse effect” and the Object discrimination index ([7]; On the 3rd week after operation) was 0.51 ± 0.22. For the same molecule, the Object discrimination index ([7]; On the 4th week after operation) was 0.31 ± 0.20, the “suppression of cytotoxicity by 6-hydroxy dopa (in words)” value [8] was “significantly suppressed” and the “Survival-cell percentage (%)” value ([8]; compound 0.83 ng/ml) was 59 ± 3%. The “Survival-cell percentage (%)” value ([8]; compound 3.3 ng/ml) was 65 ± 4%, the “Survival-cell percentage (%)” value ([8]; compound 13 ng/ml) was 69 ± 6 % and the “Survival-cell percentage (%)” value ([8]; compound 50 ng/ml) was 70 ± 6 %. For the same molecule, the “Survival-cell percentage (%)” value ([8]; compound 200 ng/ml) was 76 ± 3 % and the “Survival-cell percentage (%)” value ([8]; compound 800 ng/ml) was 92 ± 4 %.
